Measurements: US20260115202A1, “TOPICAL COMPOSITIONS COMPRISING AN ESTETROL COMPONENT AND USE OF SAID COMPOSITIONS FOR WOUND HEALING” (NEURALIS SA, priority 2022, published 2026)

Columns and labels:
[1] = system: murine peritoneal macrophages; assay: M1-polarised freshly isolated murine peritoneal macrophages, qPCR of M1 markers; assay type: cell-based, mouse; conditions: peritoneal macrophages pre-treated at 10^−7M, M1 polarised 6 hours; for expression of M1 markers (iNOS, IL1-β, Tnf-α): versus vehicle
Procedure: Peritoneal macrophages from C57/B16 mice were isolated by peritoneal lavage. The peritoneal cavity of euthanised mice were filled with 5 ml ice cold PBS supplemented with 3% FBS. Cell-containing lavage fluid was removed using a needle and syringe and cells seeded into 12- or 6-well plates at 1×10^6 cells/ml in RPM1 growth medium supplemented with 10% charcoal-stripped FBS and 1% penicillin/streptomycin, were treated with 10^-7M E2 or E4 in serum free growth medium for 16 hours and polarised to M1-type cells using 100 ng/ml IFN-γ and 1 μg/ml LPS. Following 6- or 24-hours polarisation cells were collected for RNA isolation or flow cytometry. Following treatments, human and murine macrophages were collected in Trizol and RNA isolated using the Trizol plus RNA isolation kit (Invitrogen. Thermo Fisher) according to the manufacturer's instructions. RNA was reverse transcribed to cDNA using GoScript reverse transcriptase (Promega). Quantitative real-time PCR was carried out using 2×Takyon SYBR Green mastermix and a CFX Connect thermocycler. Primers for ERα and ERβ were used to explore changes in ER expression after treatment of MEK and MDF with E2 and E4. To investigate the effect of E2 and E4 on MEK differentiation and the expression of ECM proteins by MDF, primers for. Snail, keratin-1 and fibronectin, collagen I. MMP-2 and MMP-9 were used. Primers for INOS. IL-1B and Tnf-α or Ccl17 were used to assess M1/M2 polarisation status. Primers for GAPDH were used to normalise data. Relative gene expression was set to vehicle controls or M0 expression unless otherwise stated. Finally, the anti-inflammatory effects E2 and E4 were evaluated in freshly isolated murine peritoneal macrophages. Unlike the BMDM protocol, the already differentiated peritoneal macrophages were immediately pre-treated with E2 (10^−7M) or E4 (10^−7M), followed by M1 polarisation using IFN-γ and LPS for 6 hours. […] Note, the overall level of marker expression was higher in these cells. […] The observed anti-inflammatory effects of E4 were broadly similar to those observed for E2.

[2] = system: normal human epidermal keratinocytes (NHEKs); assay: Scratch wound assay, normal human epidermal keratinocytes; assay type: cell-based; conditions: NHEK, 10^−7/10^−8 M range, 15% and 30% HKGS, 24 hours
Procedure: (§1) Primary human dermal fibroblasts (HDF) were isolated from abdominal skin or leg skin. Primary neonatal normal human epidermal keratinocytes (NHEK) were purchased (Lonza). Murine dermal fibroblasts (MDF), murine epidermal keratinocytes (MEK), murine peritoneal macrophages and murine bone marrow were isolated from C57/B16 (wt). NDb (Lepr+/−) or Db (Lepr−/−) mice.
(§2) Neonatal HEK were cultured in EpiLife supplemented with […] human keratinocyte growth supplements (HKGS) and 1% penicillin/streptomycin. MEK were cultured in CnT basal medium supplemented with 1% penicillin/streptomycin and 1% amphotericin B.
Cells were seeded into 24 well plates and cultured to form a confluent monolayer, and then scratched with a 1 ml pipette tip. Wells were treated with E2, E4 and/or various estrogen receptor agonists and antagonists. […] A vehicle control containing the equivalent concentration of EtOH and/or DMSO was included, in addition to an untreated negative control. All treatments were diluted to working concentrations in media supplemented with 2% charcoal-stripped FBS. […] Scratch closure was determined from multiple independent measurements per well.
The effects of E2 and E4 on keratinocyte migration where evaluated using primary normal human epidermal keratinocytes (NHEKs).

[3] = system: primary mouse epidermal keratinocytes (MEKs); assay: qPCR gene expression in primary mouse epidermal keratinocytes; assay type: cell-based; conditions: MEK; for expression of EMT marker Snail: 10^−7M; for expression of ERα and ERβ: particularly at 10^−7M, 24 hours, not statistically significant
Procedure: as §1, §2
Following treatments, human and murine macrophages were collected in Trizol and RNA isolated using the Trizol plus RNA isolation kit (Invitrogen. Thermo Fisher) according to the manufacturer's instructions. RNA was reverse transcribed to cDNA using GoScript reverse transcriptase (Promega). Quantitative real-time PCR was carried out using 2×Takyon SYBR Green mastermix and a CFX Connect thermocycler. Primers for ERα and ERβ were used to explore changes in ER expression after treatment of MEK and MDF with E2 and E4. To investigate the effect of E2 and E4 on MEK differentiation and the expression of ECM proteins by MDF, primers for. Snail, keratin-1 and fibronectin, collagen I. MMP-2 and MMP-9 were used. Primers for INOS. IL-1B and Tnf-α or Ccl17 were used to assess M1/M2 polarisation status. Primers for GAPDH were used to normalise data. Relative gene expression was set to vehicle controls or M0 expression unless otherwise stated.
Next, we switched to primary mouse epidermal keratinocytes (MEKs) to explore the effect of E2 and E4 on MEK wound-relevant gene expression. […] Snail, following treatment with either E2 or E4 at 10^−7M. […] In general, the observed effects of E2 and E4 on gene expression were reversed by co-treatment with the ER antagonist ICI.

THP1 cells = assay: THP1 macrophage polarisation, qPCR of M1/M2 markers; assay type: cell-based, human; conditions: range of concentrations; for expression of Tnf-α (M1 marker): M1 polarised THP1 cells; for expression of CCL17 (M2 marker): M2 polarised THP1 cells
Procedure: THP1 cells were maintained in RPM1 growth medium supplemented with 10% heat-inactivated FBS and 1% penicillin/streptomycin. Cells were seeded into 12- or 6-well plates at 2×10^5 cells/ml and treated with phorbol 12-myristate 13-acetate (PMA) to induce differentiation to macrophages. Cells were cultured for 24 hours in complete growth medium without PMA, followed by a 6 hour serum starve prior to polarisation. Cells were polarised to M1 macrophages using 20 ng/ml IFN-γ and 10 pg/ml LPS (from E, coli) for 6 or 24 hours and collected for RNA isolation or flow cytometry. Following treatments, human and murine macrophages were collected in Trizol and RNA isolated using the Trizol plus RNA isolation kit (Invitrogen. Thermo Fisher) according to the manufacturer's instructions. RNA was reverse transcribed to cDNA using GoScript reverse transcriptase (Promega). Quantitative real-time PCR was carried out using 2×Takyon SYBR Green mastermix and a CFX Connect thermocycler. Primers for ERα and ERβ were used to explore changes in ER expression after treatment of MEK and MDF with E2 and E4. To investigate the effect of E2 and E4 on MEK differentiation and the expression of ECM proteins by MDF, primers for. Snail, keratin-1 and fibronectin, collagen I. MMP-2 and MMP-9 were used. Primers for INOS. IL-1B and Tnf-α or Ccl17 were used to assess M1/M2 polarisation status. Primers for GAPDH were used to normalise data. Relative gene expression was set to vehicle controls or M0 expression unless otherwise stated. The relative anti-inflammatory effects of both E2 and E4 were evaluated in vitro. First, the human monocyte THP1 cell line was used to screen several concentrations of E2 and E4. THP1 cells were differentiated to a macrophage phenotype by treatment with PMA, followed by polarisation to an M1 or M2 phenotype (FIG. 23). Successful polarisation was confirmed by profiling the expression of the M1 marker (TNF-α) and the M2 marker (CCL17). The effects of co-treatment with a range of E2 or E4 concentrations were evaluated.

Row | SMILES | expression of M1 markers (iNOS, IL1-β, Tnf-α) [1] | scratch wound closure [2] | expression of differentiation marker Keratin 1 (Krt1) [3] | expression of EMT marker Snail [3] | expression of ERα and ERβ [3] | expression of Tnf-α (M1 marker) (THP1 cells) | expression of CCL17 (M2 marker) (THP1 cells) | expression of IL1-β [1]
1 | C[C@]12CC[C@@H]3c4ccc(O)cc4CC[C@H]3[C@@H]1CC[C@@H]2O [Formulation E2, 17β-estradiol, reference compound] | strong trend towards reduced expression | strong trend to faster wound closure | trend towards downregulation | statistically significant induction | strong trend towards induction of both ERα and ERβ | strong trend towards reduced expression of Tnf-α in M1 polarised cells | increased expression of CCL 17 in M2 polarised cells | 
2 | C[C@]12CC[C@@H]3c4ccc(O)cc4CC[C@H]3[C@@H]1[C@@H](O)[C@@H](O)[C@@H]2O [Formulation E4, 1,3,5 (10)-estratrien-3,15alpha, 16alpha, 17beta-tetrol] | strong trend towards reduced expression | strong trend to faster wound closure | trend towards downregulation | statistically significant induction | strong trend towards increased expression of both ERα and ERβ | strong trend towards reduced expression of Tnf-α in M1 polarised cells | increased expression of CCL 17 in M2 polarised cells | achieved statistical significance
